Assay results from PMC7156458, “Synthetic biology based construction of biological activity-related library of fungal decalin-containing diterpenoid pyrones” (Nature Communications, 2020).

Target: Aβ42 (Homo sapiens, UniProt P05067)
Assay: Th-T (thioflavin-T) assay of Aβ42 aggregation
Assay type: biochemical
Conditions: for Th-T fluorescence of Aβ42 with compound, mean of three wells (Fig. 7a source data): concentration 50, unit not given

Sequence of Aβ42 (P05067 672-713): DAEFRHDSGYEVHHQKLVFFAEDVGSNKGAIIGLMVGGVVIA

With `C=C1CC[C@@H]2[C@](C)(CC[C@H]3O[C@H](C=C(C)C)C[C@@]23C)[C@@H]1Cc1c(OC)oc(CO)c(C)c1=O` [Compound 20] the “Th-T fluorescence of Aβ42 with compound, mean of three wells (Fig. 7a source data)” value (shortened to “Th-T fluorescence of Aβ42 with compound”) (time-course reading M143) was 2.125, the “Th-T fluorescence of Aβ42 with compound” value (time-course reading M144) was 2.117 and the “Th-T fluorescence of Aβ42 with compound” value (time-course reading M145) was 2.122. For the same compound, the “Th-T fluorescence of Aβ42 (sheet Fig. 7a), mean of three wells” value (head suffix _10 (concentration 10), reading M63) was 3.458, the “Th-T fluorescence of Aβ42 (sheet Fig. 7a), mean of three wells” value (head suffix _10 (concentration 10), reading M64) was 3.444 and the “Th-T fluorescence of Aβ42 (sheet Fig. 7a), mean of three wells” value (head suffix _10 (concentration 10), reading M65) was 3.449. The “Th-T fluorescence of Aβ42 (sheet Fig. 7a), mean of three wells” value (head suffix _10 (concentration 10), reading M66) was 3.444, the “Th-T fluorescence of Aβ42 (sheet Fig. 7a), mean of three wells” value (head suffix _10 (concentration 10), reading M67) was 3.437 and the “Th-T fluorescence of Aβ42 (sheet Fig. 7a), mean of three wells” value (head suffix _10 (concentration 10), reading M68) was 3.439. The “Th-T fluorescence of Aβ42 (sheet Fig. 7a), mean of three wells” value (head suffix _10 (concentration 10), reading M69) was 3.4039, the “Th-T fluorescence of Aβ42 (sheet Fig. 7a), mean of three wells” value (head suffix _10 (concentration 10), reading M70) was 3.402 and the “Th-T fluorescence of Aβ42 (sheet Fig. 7a), mean of three wells” value (head suffix _10 (concentration 10), reading M71) was 3.423. For the same compound, the “Th-T fluorescence of Aβ42 (sheet Fig. 7a), mean of three wells” value (head suffix _10 (concentration 10), reading M72) was 3.425, the “Th-T fluorescence of Aβ42 (sheet Fig. 7a), mean of three wells” value (head suffix _10 (concentration 10), reading M73) was 3.414 and the “Th-T fluorescence of Aβ42 (sheet Fig. 7a), mean of three wells” value (head suffix _10 (concentration 10), reading M74) was 3.412. For the same compound, the “Th-T fluorescence of Aβ42 (sheet Fig. 7a), mean of three wells” value (head suffix _10 (concentration 10), reading M75) was 3.393, the “Th-T fluorescence of Aβ42 (sheet Fig. 7a), mean of three wells” value (head suffix _10 (concentration 10), reading M76) was 3.416 and the “Th-T fluorescence of Aβ42 (sheet Fig. 7a), mean of three wells” value (head suffix _10 (concentration 10), reading M77) was 3.391. For the same compound, the “Th-T fluorescence of Aβ42 (sheet Fig. 7a), mean of three wells” value (head suffix _10 (concentration 10), reading M78) was 3.393, the “Th-T fluorescence of Aβ42 (sheet Fig. 7a), mean of three wells” value (head suffix _10 (concentration 10), reading M79) was 3.378 and the “Th-T fluorescence of Aβ42 (sheet Fig. 7a), mean of three wells” value (head suffix _10 (concentration 10), reading M80) was 3.379. For the same compound, the “Th-T fluorescence of Aβ42 (sheet Fig. 7a), mean of three wells” value (head suffix _10 (concentration 10), reading M81) was 3.38, the “Th-T fluorescence of Aβ42 (sheet Fig. 7a), mean of three wells” value (head suffix _10 (concentration 10), reading M82) was 3.375 and the “Th-T fluorescence of Aβ42 (sheet Fig. 7a), mean of three wells” value (head suffix _10 (concentration 10), reading M83) was 3.373. For the same compound, the “Th-T fluorescence of Aβ42 (sheet Fig. 7a), mean of three wells” value (head suffix _10 (concentration 10), reading M84) was 3.355, the “Th-T fluorescence of Aβ42 (sheet Fig. 7a), mean of three wells” value (head suffix _20 (concentration 20), reading M63) was 3.439 and the “Th-T fluorescence of Aβ42 (sheet Fig. 7a), mean of three wells” value (head suffix _20 (concentration 20), reading M64) was 3.419. For the same compound, the “Th-T fluorescence of Aβ42 (sheet Fig. 7a), mean of three wells” value (head suffix _20 (concentration 20), reading M65) was 3.416, the “Th-T fluorescence of Aβ42 (sheet Fig. 7a), mean of three wells” value (head suffix _20 (concentration 20), reading M66) was 3.432 and the “Th-T fluorescence of Aβ42 (sheet Fig. 7a), mean of three wells” value (head suffix _20 (concentration 20), reading M67) was 3.438. For the same compound, the “Th-T fluorescence of Aβ42 (sheet Fig. 7a), mean of three wells” value (head suffix _20 (concentration 20), reading M68) was 3.449, the “Th-T fluorescence of Aβ42 (sheet Fig. 7a), mean of three wells” value (head suffix _20 (concentration 20), reading M69) was 3.405 and the “Th-T fluorescence of Aβ42 (sheet Fig. 7a), mean of three wells” value (head suffix _20 (concentration 20), reading M70) was 3.395. For the same compound, the “Th-T fluorescence of Aβ42 (sheet Fig. 7a), mean of three wells” value (head suffix _20 (concentration 20), reading M71) was 3.403, the “Th-T fluorescence of Aβ42 (sheet Fig. 7a), mean of three wells” value (head suffix _20 (concentration 20), reading M72) was 3.419 and the “Th-T fluorescence of Aβ42 (sheet Fig. 7a), mean of three wells” value (head suffix _20 (concentration 20), reading M73) was 3.421. The “Th-T fluorescence of Aβ42 (sheet Fig. 7a), mean of three wells” value (head suffix _20 (concentration 20), reading M74) was 3.387, the “Th-T fluorescence of Aβ42 (sheet Fig. 7a), mean of three wells” value (head suffix _20 (concentration 20), reading M75) was 3.3567 and the “Th-T fluorescence of Aβ42 (sheet Fig. 7a), mean of three wells” value (head suffix _20 (concentration 20), reading M76) was 3.391. For the same compound, the “Th-T fluorescence of Aβ42 (sheet Fig. 7a), mean of three wells” value (head suffix _20 (concentration 20), reading M77) was 3.3972, the “Th-T fluorescence of Aβ42 (sheet Fig. 7a), mean of three wells” value (head suffix _20 (concentration 20), reading M78) was 3.402 and the “Th-T fluorescence of Aβ42 (sheet Fig. 7a), mean of three wells” value (head suffix _20 (concentration 20), reading M79) was 3.362. For the same compound, the “Th-T fluorescence of Aβ42 (sheet Fig. 7a), mean of three wells” value (head suffix _20 (concentration 20), reading M80) was 3.347, the “Th-T fluorescence of Aβ42 (sheet Fig. 7a), mean of three wells” value (head suffix _20 (concentration 20), reading M81) was 3.353 and the “Th-T fluorescence of Aβ42 (sheet Fig. 7a), mean of three wells” value (head suffix _20 (concentration 20), reading M82) was 3.387. The “Th-T fluorescence of Aβ42 (sheet Fig. 7a), mean of three wells” value (head suffix _20 (concentration 20), reading M83) was 3.377, the “Th-T fluorescence of Aβ42 (sheet Fig. 7a), mean of three wells” value (head suffix _20 (concentration 20), reading M84) was 3.32 and the “Th-T fluorescence of Aβ42 (sheet Fig. 7a), mean of three wells” value (head suffix _50 (concentration 50), reading M63) was 2.073. The “Th-T fluorescence of Aβ42 (sheet Fig. 7a), mean of three wells” value (head suffix _50 (concentration 50), reading M64) was 2.076, the “Th-T fluorescence of Aβ42 (sheet Fig. 7a), mean of three wells” value (head suffix _50 (concentration 50), reading M65) was 2.0862 and the “Th-T fluorescence of Aβ42 (sheet Fig. 7a), mean of three wells” value (head suffix _50 (concentration 50), reading M66) was 2.098. For the same compound, the “Th-T fluorescence of Aβ42 (sheet Fig. 7a), mean of three wells” value (head suffix _50 (concentration 50), reading M67) was 2.131, the “Th-T fluorescence of Aβ42 (sheet Fig. 7a), mean of three wells” value (head suffix _50 (concentration 50), reading M68) was 2.106 and the “Th-T fluorescence of Aβ42 (sheet Fig. 7a), mean of three wells” value (head suffix _50 (concentration 50), reading M69) was 2.087. The “Th-T fluorescence of Aβ42 (sheet Fig. 7a), mean of three wells” value (head suffix _50 (concentration 50), reading M70) was 2.078, the “Th-T fluorescence of Aβ42 (sheet Fig. 7a), mean of three wells” value (head suffix _50 (concentration 50), reading M71) was 2.105 and the “Th-T fluorescence of Aβ42 (sheet Fig. 7a), mean of three wells” value (head suffix _50 (concentration 50), reading M72) was 2.132.
